Measurements: patent US20100179188A1, “NITROXIDE RADICAL AS TREATMENT FOR NEURODEGENERATION” (Office of Technology Transfer, NIH, priority 2007, published 2010)

Legend:
IRP1 = molecular target: T1, IRP1 (Mus musculus, UniProt P28271); test: IRE-binding activity of IRP1 in IRP2−/− embryonic fibroblasts (gel shift); type: cell-based; parameters: Embryonic fibroblasts of 13-day old embryos were isolated from wild type, IRP1−/− mice and IRP2−/− mice; endogenous in cells; host or cells: mouse embryonic fibroblasts (wild type and IRP2−/−); conditions: 0.3 and 1.0 mM, 16 h
T1 sequence (P28271 1-889): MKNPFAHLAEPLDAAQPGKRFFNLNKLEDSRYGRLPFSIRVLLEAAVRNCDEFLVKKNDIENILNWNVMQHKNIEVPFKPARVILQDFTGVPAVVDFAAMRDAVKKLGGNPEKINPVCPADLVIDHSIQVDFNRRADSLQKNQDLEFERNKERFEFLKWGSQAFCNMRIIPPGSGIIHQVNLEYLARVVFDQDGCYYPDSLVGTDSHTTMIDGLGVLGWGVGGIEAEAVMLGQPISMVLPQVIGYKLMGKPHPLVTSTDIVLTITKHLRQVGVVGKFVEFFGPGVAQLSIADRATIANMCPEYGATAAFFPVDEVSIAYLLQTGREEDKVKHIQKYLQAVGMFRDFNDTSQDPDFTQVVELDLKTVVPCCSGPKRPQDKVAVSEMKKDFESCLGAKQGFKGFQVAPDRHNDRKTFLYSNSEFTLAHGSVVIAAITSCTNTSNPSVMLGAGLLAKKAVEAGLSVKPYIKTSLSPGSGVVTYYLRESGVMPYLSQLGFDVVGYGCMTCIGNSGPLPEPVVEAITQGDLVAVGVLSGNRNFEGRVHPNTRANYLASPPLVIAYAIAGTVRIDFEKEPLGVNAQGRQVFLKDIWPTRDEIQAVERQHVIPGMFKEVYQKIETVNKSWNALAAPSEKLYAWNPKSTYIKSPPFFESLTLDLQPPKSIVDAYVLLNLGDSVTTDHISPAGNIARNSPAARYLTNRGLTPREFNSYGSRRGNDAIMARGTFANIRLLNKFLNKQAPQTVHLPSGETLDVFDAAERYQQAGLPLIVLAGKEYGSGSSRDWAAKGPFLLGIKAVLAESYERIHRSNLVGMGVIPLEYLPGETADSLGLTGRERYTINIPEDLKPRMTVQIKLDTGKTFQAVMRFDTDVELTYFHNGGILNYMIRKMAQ
Procedure: Cells: Embryonic fibroblasts of 13-day old embryos were isolated from wild type, IRP1−/− mice and IRP2−/− mice as described in LaVaute et al. supra. Myc-tagged HEK 293 Tet-on cell line, in which IRP2 expression was inducible, was prepared and cultured as described Bourdon et al., Blood Cells Mol Dis, 31, 247-255 (2003). Erythroblasts were harvested from bone marrow and purified as described in Cooperman et al., Blood, 106, 1084-1091 (2005).
RNA mobility shift assays: Gel retardation assays were performed as described in Meyron-Holtz et al., EMBO J, 23, 386-395 (2004). Tissue lysates were prepared in an anaerobic chamber as described above in oxygen-depleted lysis buffer containing 10 mM HEPES (pH 7.2), 3 mM MgC12, 40 mM KCl, 5% glycerol, 0.2% Nonidet P-40, 5 mM DTT, 1 mM AEBSF, 10 μg/ml. Leupeptin and complete TM EDTA free protease inhibitor cocktail (Roche Applied Science, Indiana). […]
To study the effect of Tempo1 on the IRE-binding activity of IRP1, IRP2−/− embryonic fibroblasts that were maintained in culture supplemented with 0, 0.3 and 1.0 mM Tempo1, with or without ferric ammonium citrate (FAC), for 16 h. […] Quantification was performed with the IQMac (IRP1 activity) or NIH Image (protein levels) program. Error bars represent the standard deviation calculated from the results of two different sets of experiments.

IRP1+/− IRP2−/− mice = test: Hang-test of IRP1+/− IRP2−/− mice on Tempo1-supplemented diet; type: in vivo; conditions: FIG. 7c
Procedure: Diet: The mice were weaned 3-4 weeks after their birth. Immediately after weaning, mice were maintained on either a Tempo1-supplemented or control diet. In the Tempo1-supplemented diet, powdered Tempo1 was uniformly mixed with bacon-flavored mouse chow by a “cold press” technique (Bio-Serv, Frenchtown, N.J., USA) at a concentration of 10 mg/g of food. Bacon-flavored chow without Tempo1 was used as the control diet.
Hang-test: In the hang-test, mice were allowed to grip a wire mesh that was then inverted. The length of time that a mouse could hang on to an inverted wire mesh before falling (up to a maximum of 60 seconds) was measured and recorded.
Hang-test results of WT, IRP2−/− and IRP1+/− IRP2−/− mice that indicated IRP1+/− IRP2−/− animals were more symptomatic than IRP2−/− animals. […] Error bars represent standard error of the mean. The curves were drawn by using the polynomial curve fit of the KaleidaGraph program.

CC1(C)CC(O)CC(C)(C)N1[O] [Tempo1]
IRE-binding activity of IRP1 (IRP1): activate IRP1 | prevention of disease progression (hang-test) (IRP1+/− IRP2−/− mice): did not significantly (p=0.559) prevent
